Laboratory results: paper PMC10707468, “Pharmacokinetics of Novel Dopamine Transporter Inhibitor CE-123 and Modafinil with a Focus on Central Nervous System Distribution” (International Journal of Molecular Sciences, 2023)

Key:
male Sprague-Dawley rats = tested on: male Sprague-Dawley rats; set-up: method as in PMID 29230168, PMID 29410048, PMID 33940050; settings: cited from earlier work
[1] = tested on: cerebEND in vitro model of the blood–brain barrier; settings: cerebEND; cited from earlier work
[2] = In vitro plasma stability assay; format: in vitro ADME; settings: rat plasma, 37 °C
Protocol: In vitro plasma stability assay was used in the scope of the validation studies. Briefly, 40 μL of blank rat plasma or blank rat plasma containing 10% DMF as an inhibitor was first pre-warmed for 5 min at 37 °C using a Thermomixer® comfort (Eppendorf, Hamburg, Germany). […] The reaction was terminated after 0, 1, 2, and 4 h, via the addition of 50 μL of ice-cold ACN containing the IS solution. The samples were centrifuged for 10 min at 3000× g at 4 °C. The supernatant of all samples was diluted with 0.1% FA in water, 1:2 (v:v), and 10 µL of the sample was injected onto the LC–HRMS system.

[3] = In vivo rat tissue biodistribution / neuroPK study, 4 h intravenous constant infusion; set-up: species or system Sprague-Dawley rats; settings: for metabolite detection in rat samples: after 4 h iv infusion 20 mg/kg of parent
Protocol: The results are summarized in Figure 4 and Table S2 within Supplementary Materials.
In order to minimize the usage of animals and gain high confidence in the tissue distribution, a 4 h constant intravenous infusion study was designed based on the systemic pharmacokinetic parameters determined elsewhere. The catheters were surgically implanted a day before the PK experiment. The rats (n = 3 per compound) were then individually placed into a CMA 120 system (CMA, Solna, Sweden). […] A dose of 20 mg/kg was administered as a combination of an initial short 10 min infusion as a loading dose followed by a constant infusion up to 4 h, targeting a steady-state total plasma concentration of around 1000 ng/mL for each compound (based on the pilot study results). Blood was collected into heparinized Eppendorf tubes via a femoral artery catheter at 0 (before infusion starts) 1, 2, 3, and 4 h after the infusion started and immediately centrifuged at 10,000 rpm for 5 min at +4 °C. Plasma was then collected and kept at −20 °C. At 4 h, the rats were anesthetized via inhalation of 2.5% isoflurane (Abbot Scandinavia, Solna, Sweden), balanced with 1.5 L/min oxygen, after which the terminal blood and tissue samples were collected. […] The tissue samples (brain, spinal cord, liver, and kidney) were rapidly removed, pre-weighed into a 2 mL hard tissue homogenizing tube with mini-beads, and subsequently homogenized in 2 volumes of MQ water using a 4-Place Bead Mill Homogenizer (VWR, Stockholm, Sweden) at the maximal speed for 2 min and thereafter kept at +4 °C. The plasma and tissue homogenate samples were stored at −20 °C until LC–MS analysis.
For all the rat plasma and CSF samples, an aliquot of 50 µL was spiked with 50 µL of 4% PA in water containing the IS solution to disrupt the drug–protein binding. For all rat tissue samples (brain, spinal cord, liver, and kidney), an aliquot of 50 µL was spiked with 50 µL ice-cold ACN containing the IS solution for protein precipitation. The samples were vortexed and spun down for 10 min (3000× g, 4 °C) and 25 µL of clear supernatant was diluted with 225 µL 0.1% FA in water to achieve 10% of ACN in the solution. SPE clean-up was performed using an Oasis PRiME HLB µElution 96-well plate, 3 mg (Waters Corporation, Vienna, Austria). The SPE cartridges were preconditioned and equilibrated with 1 × 200 µL ACN and 0.1% FA in water each. The samples were loaded onto the cartridges and washed with 2 × 200 µL 0.1% FA in water and 1 × 200 µL ACN/0.1% FA in water 10:90 (v:v). The analytes were eluted from the SPE cartridge into a collection plate with 2 × 25 µL ACN/0.1% FA in water 70:30 (v:v). All the samples were diluted with 50 µL of 0.1% FA in water and 10 µL of sample was injected onto the LC–HRMS system.
All samples, blanks, standards, and quality control samples in the respective matrices were analyzed on a UHPLC system (Dionex UltiMate 3000 RSLC series system, Thermo Fisher Scientific, Inc., Dreieich, Germany) coupled with a high-resolution mass spectrometer (maXis HD Q-TOF, Bruker Daltonics, Bremen, Germany) equipped with a heated electrospray ionization (ESI) source. Reversed-phase chromatographic separation was performed on a Kinetex Phenyl-Hexyl column (2.6 µm, 2.1 × 50 mm, Phenomenex, Torrance, CA, USA), equipped with a precolumn (2.6 µm, Phenomenex, Torrance, CA, USA), at a flow rate of 0.4 mL/min. Eluent A was water containing 0.1% FA and eluent B ACN. A multi-step gradient was optimized as follows: the initial mobile phase composition (5% eluent B) was held constant for 1 min, followed by a linear increase to 30% eluent B until minute 1.5, to 40% eluent B until minute 5.5, and to 95% eluent B until minute 6. After a hold time of 2 min, the column was re-equilibrated for 2.5 min at the initial conditions (5% eluent B). The column compartment and the autosampler were maintained at 40 °C and at 8 °C, respectively. […]

[4] = In vitro metabolic stability in human liver microsomes; format: in vitro ADME; settings: R-modafinil 1, 5, 10, 50 µM
Protocol: An in vitro metabolism assay to study the phase I metabolism in the HLMs was in-house-developed. Optimization of the protocol included the test compound concentration (1, 5, 10 m and 50 µM) and extraction solvents (ACN and MeOH). […] The metabolic assay was initiated by the addition of 10 mM NADPH to the reaction solution and terminated after 0, 2.5, 5, 15, 30, 45, and 60 min via the addition of 200 µL of ice-cold MeOH containing the IS solution. The samples were than vortexed and spun for 15 min (14,000× g, 4 °C). The supernatant was collected, evaporated to dryness using the Concentrator plus (Eppendorf), and reconstituted with 100 µL of ACN/0.1% FA in water 10:90 (v:v). To ensure that the assay was performing adequately, the incubation of 1 µM diazepam at the same assay conditions as described was conducted, and the formation of its metabolites temazepam and nordazepam was monitored. A negative control included the absence of NADPH, the test compound, or HLMs during assay. […] The metabolic stability curves of the tested compounds were established by plotting the incubation time against the natural logarithm of the % parent drug remaining. The slope (k) of the linear part was utilized for the in vitro half-life (t1/2, min) as ln2/k. The V (µL/mg) was calculated as the volume of the reaction solution (100 µL) divided by the protein amount in the incubation (0.5 mg). The protein amount was predetermined by the supplier and the content was checked by using a Pierce™ BCA Protein Assay Kit (Thermo Fisher Scientific, Vienna, Austria) for each freshly opened tube. The intrinsic clearance (CLint, µL/min/mg) was calculated according to the following equation:(7) CLint=0.693/t1/2·V […]

CYP2C19 = CYP2C19 (Homo sapiens, UniProt P33261); settings: in HLMs; ref Robertson et al. (2000) [72]; cited from earlier work
CYP2C19, sequence (P33261 whole entry): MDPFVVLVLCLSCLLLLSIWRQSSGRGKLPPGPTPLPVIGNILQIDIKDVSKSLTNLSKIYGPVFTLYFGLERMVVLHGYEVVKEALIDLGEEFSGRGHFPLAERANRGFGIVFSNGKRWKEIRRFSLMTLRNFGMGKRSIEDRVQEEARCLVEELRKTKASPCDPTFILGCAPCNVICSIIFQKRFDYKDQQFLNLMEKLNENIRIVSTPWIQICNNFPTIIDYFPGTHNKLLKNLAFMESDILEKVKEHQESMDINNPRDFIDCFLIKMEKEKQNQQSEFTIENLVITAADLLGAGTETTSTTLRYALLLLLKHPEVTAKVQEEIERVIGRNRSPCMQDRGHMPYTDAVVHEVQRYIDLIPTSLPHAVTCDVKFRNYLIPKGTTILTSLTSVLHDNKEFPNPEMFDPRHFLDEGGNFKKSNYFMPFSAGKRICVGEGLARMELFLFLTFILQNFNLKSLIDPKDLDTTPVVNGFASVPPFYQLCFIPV

CYP2C9 = CYP2C9 (Homo sapiens, UniProt P11712); settings: primary cell cultures of human hepatocytes; ref Robertson et al. (2000) [72]; cited from earlier work
CYP2C9, sequence (P11712 whole entry): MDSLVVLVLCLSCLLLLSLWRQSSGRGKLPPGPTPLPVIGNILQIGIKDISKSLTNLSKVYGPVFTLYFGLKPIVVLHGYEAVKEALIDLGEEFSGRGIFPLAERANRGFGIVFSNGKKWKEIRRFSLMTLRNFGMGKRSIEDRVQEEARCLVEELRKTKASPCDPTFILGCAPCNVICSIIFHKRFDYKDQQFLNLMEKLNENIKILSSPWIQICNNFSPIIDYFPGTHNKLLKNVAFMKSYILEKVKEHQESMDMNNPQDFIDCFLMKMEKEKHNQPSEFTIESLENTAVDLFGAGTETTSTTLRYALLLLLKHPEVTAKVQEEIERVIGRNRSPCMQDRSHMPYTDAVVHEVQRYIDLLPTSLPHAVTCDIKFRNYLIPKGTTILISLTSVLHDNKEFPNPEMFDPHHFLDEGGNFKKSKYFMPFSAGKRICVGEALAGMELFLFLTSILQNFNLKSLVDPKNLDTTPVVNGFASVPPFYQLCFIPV

CYP1A2 = settings: ref Robertson et al. (2000) [72]; cited from earlier work
CYP2B6 = settings: ref Robertson et al. (2000) [72]; cited from earlier work

Compound: [O-][S+](c1cncs1)C(c1ccccc1)c1ccccc1 (stereo not shown) [CE-123, 5-[(Diphenylmethyl)sulfinyl]thiazole]
- cognitive flexibility (male Sprague-Dawley rats; male Sprague-Dawley rats, without impulsive responding, compared to R-modafinil): enhance the cognitive flexibility
- memory acquisition and memory retrieval (male Sprague-Dawley rats; rats, doses that did not change locomotor activity): enhance memory acquisition and memory retrieval
- ability to cross in vitro model of the BBB [1]: could penetrate the BBB in a similar manner to diazepam

Compound: O=C(O)C[S+]([O-])C(c1ccccc1)c1ccccc1 (stereo not shown) [modafinic acid]
- metabolite detection during plasma incubation of R-modafinil [2]: detected at the 2 and 4 h time points
- metabolite detection in rat samples [3]: detected together in the plasma, CSF, liver, and kidneys
- metabolite formation during HLM incubation of R-modafinil [4]: not detected

Compound: NC(=O)CS(=O)(=O)C(c1ccccc1)c1ccccc1 [modafinil sulfone]
- metabolite detection in rat samples [3]: detected together in the plasma, CSF, liver, and kidneys
- detection in rat brain and spinal cord tissue ([3]; after 4 h iv infusion of R-modafinil 20 mg/kg, S/N below LOQ): detected
- metabolite formation during HLM incubation of R-modafinil [4]: observed at all concentrations

Compound: NC(=O)C[S+]([O-])C(c1ccccc1)c1ccccc1 (stereo not shown) [modafinil, 2-[(Diphenylmethyl)sulfinyl]acetamide]
- CYP2C19 inhibition (CYP2C19): reversible inhibition
- CYP2C9 activity (CYP2C9): apparent suppression
- CYP1A2 induction (CYP1A2): modestly induces
- CYP2B6 induction (CYP2B6): modestly induces
